Assay results as given in the NIST ThermoML archive (doi:10.1021/je0504360).
Numbers after ± are expanded uncertainties.

Key:
[1] = Crystal; DTA
[2] = Molar enthalpy of transition or fusion; conditions: Crystal; DSC

Normal melting temperature [1]: 200.1 ± 1.1 °C
Molar enthalpy of transition or fusion [2]: 9.53 ± 0.213 kcal/mol
SMILES: COc1ccc2cc3[n+](cc2c1OC)CCc1cc2c(cc1-3)OCO2.[Cl-]
